Where two headings read alike, the source gives them in different places.
Legend:
[1] = Cytotoxicity to MT4 cells, CellTiter-Glo Luminescent Cell Viability Assay; format: cell-based; conditions: human
[2] = test system: HIV-1 NL4-3; experiment: Anti-HIV assay: HIV-1 NL4-3 replication in MT4 cells, p24 ELISA; format: cell-based
[3] = Human immunodeficiency virus 1, NL43, MT4, 96 h, read-out: anti-HIV (NL4-3) EC90
[4] = read-out: anti-HIV (NL4-3) EC90, concentration that inhibited HIV-1 replication by 90%, MT4 cells, 4-day post infection, p24 ELISA

Compound | IC50 [1] [nM] | EC90 [2, 3] [nM] | EC90 ([2]; Human immunodeficiency virus 1, NL43, MT4, read-out: anti-HIV EC90) [nM] | EC90 [2, 4] [nM]
C=C(C)[C@@]12C[C@@H](COC(=O)c3ccccc3)[C@@]34OC5(O[C@@H]1[C@@H]3[C@@H]1O[C@]1(CO)[C@@H](O)[C@@]1(O)[C@H]4[C@H]([C@H](C)[C@@H]1OC(=O)c1ccccc1)[C@H](C)CCCCCC[C@H]5O)O2 [Compound 1, gnidimacrin] | 2800 | 0.41 | < 1 | –
C=C(C)[C@]12C[C@@H](C)[C@@]34OC5(CCCCCCC[C@H](C)[C@H]6[C@H](C)[C@H](OC(=O)c7ccccc7)[C@@](O)([C@H](O)[C@@]7(CO)O[C@H]7[C@H]3[C@H]1O5)[C@@H]64)O2 [Compound 2, pimelea factor P2] | 3200 | 1.4 | – | –
C=C(C)[C@]12C[C@@H](COC(=O)c3ccccc3)[C@@]34OC5(CCCCCCC[C@@H](C)[C@H]6[C@H](C)C(=O)[C@@](O)([C@H](O)[C@@]7(CO)O[C@H]7[C@H]3[C@H]1O5)[C@@H]64)O2 [Compound 3, wikstroelide F] | – | – | – | 1.7
C=C(C)[C@]12C[C@@H](COC(C)=O)[C@@]34O[C@]5(O[C@@H]1[C@@H]3[C@@H]1O[C@]1(CO)[C@@H](O)[C@@]1(O)[C@H]4[C@H]([C@H](C)[C@@H]1OC(=O)c1ccccc1)[C@H](C)CCCCCC[C@H]5O)O2 [Compound 4, Stelleralide A] | – | – | – | 0.4
C=C(C)[C@]12C[C@@H](COC(=O)c3ccccc3)[C@]34OC5(CCCCCCC[C@H](C)[C@@H]6[C@@H]3[C@]3(O[C@]6(C)OC3=O)[C@H](O)[C@@]3(CO)O[C@H]3[C@H]4[C@H]1O5)O2 [Compound 6, Stelleralide C] | – | – | – | 91
C=C(C)[C@]12C[C@@H](C)[C@@]34O[C@](CCCCCCCCC)(O[C@@H]1[C@@H]3[C@@H]1O[C@]1(CO)[C@@H](O)[C@]1(O)C(=O)C(C)=C[C@H]14)O2 [Compound 7, simplexin] | 22500 | 8 | – | –
C=C(C)[C@]12C[C@@H](C)[C@@]34O[C@](/C=C/C=C/CCCCCCCCC)(O[C@@H]1[C@@H]3[C@@H]1O[C@]1(CO)[C@@H](O)[C@]1(O)C(=O)C(C)=C[C@H]14)O2 [Compound 8, huratoxin] | – | – | – | 5.8
Stelleralide B [Compound 5] | – | – | – | 1.6
